The text below walks through data of PubChem BioAssay (NCI).

Some test systems named below: CAKI-1 renal; RXF 393 renal; MALME-3M melanoma; M14 melanoma; MOLT-4 leukemia; MDA-MB-435; SR leukemia; SF-268 CNS; IGROV1 ovarian; SK-MEL-28 melanoma.
Holding throughout (assay): growth of human tumour cells (NCI), 48 h

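1) Cells in 96-well plates. 2) Compound, 48 h, 5 concentrations. 3) Linear interpolation between surrounding doses. 4) Unreached endpoint = highest concentration. Abbreviation: GI50, concentration required for 50% inhibition of growth. Definition used: TGI = concentration required for complete inhibition of growth.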

With `C=C(C)[C@@H]1CC[C@]2(C(N)=O)CC[C@]3(C)[C@H](CC[C@@H]4[C@@]5(C)CC[C@H](O)C(C)(C)[C@@H]5CC[C@]43C)[C@@H]12`, the GI50 is 1980 nM in the assay with CAKI-1 renal; 2100 nM in the assay with RXF 393 renal; 2390 nM with MALME-3M melanoma; 6050 nM with M14 melanoma; 3430 nM in the assay on MOLT-4 leukemia; 8650 nM in the assay on MDA-MB-435. For the same molecule, the GI50 in the assay with SR leukemia was 4140 nM; in the assay with SF-268 CNS it was 4340 nM; in the assay on IGROV1 ovarian it was 3320 nM; in the assay with SK-MEL-28 melanoma it was 10900 nM. Also, the TGI in the assay with CAKI-1 renal is 4.98 µM; in the assay on RXF 393 renal it was 5390 nM; with MALME-3M melanoma it was 8.15 µM; with M14 melanoma, above 100 µM; in the assay with MOLT-4 leukemia it was 18.3 µM; in the assay with MDA-MB-435, above 100 µM. For the same molecule, the TGI in the assay with SR leukemia is 23.5 µM; in the assay on SF-268 CNS it was above 100 µM; in the assay on IGROV1 ovarian it was 14.5 µM; with SK-MEL-28 melanoma it was 42.3 µM.

For the molecule `CC1=C(C(=O)Nc2ccccc2C)C(c2ccc(C3C(C(=O)Nc4ccccc4C)=C(C)NC(C)=C3C(=O)Nc3ccccc3C)cc2)C(C(=O)Nc2ccccc2C)=C(C)N1`, the TGI was 22.7 µM with CAKI-1 renal; 17600 nM with RXF 393 renal; 6.13 µM with MALME-3M melanoma; 8.23 µM in the assay with M14 melanoma; 9.28 µM in the assay with MOLT-4 leukemia; 14.3 µM with MDA-MB-435. Also, the TGI in the assay on SR leukemia is 8.56 µM; in the assay with SF-268 CNS, 7.18 µM; in the assay on IGROV1 ovarian it was 9.5 µM; with SK-MEL-28 melanoma, 4.26 µM.

Consider `COC(=O)[C@H]1C(=O)[C@@]2(C)[C@H]([C@H](OC(=O)c3ccccc3)[C@]3(O)C[C@H](OC(=O)[C@H](O)[C@@H](NC(=O)c4ccc(F)cc4)c4ccccc4)C(C)=C1C3(C)C)[C@]1(OC(C)=O)CO[C@@H]1C[C@@H]2O`, for which the GI50 with CAKI-1 renal was 120 nM; with RXF 393 renal, 15.2 nM; in the assay with MALME-3M melanoma, 18.7 nM; with M14 melanoma, 11.4 nM; in the assay with MOLT-4 leukemia, 10.1 nM; with MDA-MB-435, 2.5 nM. The GI50 with SR leukemia is 4.28 nM; with SF-268 CNS, 15.1 nM; in the assay with IGROV1 ovarian, 4.78 nM; in the assay with SK-MEL-28 melanoma, 15.4 nM. Besides, the TGI was above 16.3 µM with CAKI-1 renal; above 25000 nM with RXF 393 renal; above 25 µM in the assay with MALME-3M melanoma; 0.105 µM in the assay on M14 melanoma; 3.42 µM with MOLT-4 leukemia; 0.00604 µM in the assay with MDA-MB-435. Also, the TGI with SR leukemia was 1.69 µM; in the assay with SF-268 CNS, above 25 µM; in the assay on IGROV1 ovarian it was above 7.29 µM; in the assay with SK-MEL-28 melanoma it was 22 µM.

On to `CNC(=O)c1c(NC(=O)c2ccc(C(F)(F)F)cc2)sc2c1CCC(=O)C2`, for which the GI50 is 388 nM in the assay with CAKI-1 renal; 410 nM in the assay on RXF 393 renal; 1110 nM with MALME-3M melanoma; 508 nM in the assay on M14 melanoma; 470 nM in the assay with MOLT-4 leukemia; 818 nM with MDA-MB-435. The GI50 with SR leukemia is 356 nM; with SF-268 CNS, 995 nM; in the assay on IGROV1 ovarian it was 471 nM; in the assay with SK-MEL-28 melanoma it was 864 nM. The TGI is 1.88 µM in the assay on CAKI-1 renal; 2150 nM with RXF 393 renal; 3.88 µM in the assay on MALME-3M melanoma; 3.77 µM in the assay on M14 melanoma; 4.01 µM in the assay with MOLT-4 leukemia; 3.55 µM in the assay on MDA-MB-435. Also, the TGI is above 100 µM with SR leukemia, above 37.9 µM with SF-268 CNS, 4.89 µM with IGROV1 ovarian and 3.67 µM with SK-MEL-28 melanoma.

In the case of `CO/[N+]([O-])=C\C(=O)N/C=C/C(=O)O`, the TGI in the assay with CAKI-1 renal was above 100 µM; in the assay on RXF 393 renal, above 100000 nM; in the assay on MALME-3M melanoma, above 100 µM; with M14 melanoma, above 100 µM; in the assay with MOLT-4 leukemia, above 100 µM; in the assay on MDA-MB-435, above 100 µM. Moreover, the TGI in the assay on SR leukemia, with SF-268 CNS, in the assay with IGROV1 ovarian and in the assay on SK-MEL-28 melanoma was above 100 µM throughout.

Turning to `COc1cccc(Cn2c(-c3nonc3N)nc3ccccc32)c1`, the GI50 in the assay on CAKI-1 renal was 404 nM; in the assay on RXF 393 renal it was 244 nM; with MALME-3M melanoma, 425 nM; in the assay on M14 melanoma, 532 nM; with MOLT-4 leukemia it was 632 nM; in the assay with MDA-MB-435, 201 nM. Besides, the GI50 is 310 nM in the assay on SR leukemia, 844 nM with SF-268 CNS, 624 nM with IGROV1 ovarian and 781 nM in the assay with SK-MEL-28 melanoma. For the same molecule, the TGI with CAKI-1 renal was above 100 µM; with RXF 393 renal, 675 nM; with MALME-3M melanoma it was above 95.1 µM; with M14 melanoma, above 100 µM; with MOLT-4 leukemia, above 100 µM; in the assay on MDA-MB-435, 0.549 µM. Besides, the TGI with SR leukemia was above 100 µM; with SF-268 CNS, above 100 µM; in the assay on IGROV1 ovarian, above 75.6 µM; in the assay on SK-MEL-28 melanoma, above 91.8 µM.

For the molecule `COc1cc2c(F)nccc2cc1C(=O)N[C@@H](c1ccc(F)c(Cl)c1)[C@@H]1C[C@@H](O)CN1`, the GI50 was 355 nM in the assay on CAKI-1 renal; 36.2 nM in the assay on RXF 393 renal; 716 nM in the assay with MALME-3M melanoma; 10500 nM in the assay on M14 melanoma; 188 nM with MOLT-4 leukemia; 2000 nM in the assay on MDA-MB-435. For the same molecule, the results for the GI50 with SF-268 CNS, in the assay with IGROV1 ovarian and in the assay with SK-MEL-28 melanoma were 3640 nM, 57.3 nM and 4480 nM, respectively. Further, the TGI in the assay on CAKI-1 renal was 14.6 µM; in the assay with RXF 393 renal, 268 nM; with MALME-3M melanoma it was 15.4 µM; with M14 melanoma, 23.2 µM; in the assay with MOLT-4 leukemia, above 41.6 µM; with MDA-MB-435, 17 µM. Besides, the TGI was above 41.9 µM in the assay on SR leukemia, 21.6 µM in the assay with SF-268 CNS, 11.4 µM in the assay with IGROV1 ovarian and 20.2 µM in the assay on SK-MEL-28 melanoma.

In the case of `CCN1C(=O)N(CC)C2C1NN=c1s/c(=C\c3ccccc3F)c(=O)n12` (centres undefined), the GI50 is 32.3 nM in the assay with CAKI-1 renal; 22.4 nM in the assay on RXF 393 renal; 15400 nM with MALME-3M melanoma; 31.1 nM in the assay on M14 melanoma; 41.9 nM with MOLT-4 leukemia; 14.8 nM in the assay with MDA-MB-435. Besides, the GI50 in the assay with SR leukemia was 27.8 nM; in the assay on SF-268 CNS it was 67.9 nM; with IGROV1 ovarian, 51.2 nM; in the assay with SK-MEL-28 melanoma, 62400 nM. Moreover, the TGI in the assay on CAKI-1 renal was above 100 µM; with RXF 393 renal, 1360 nM; with MALME-3M melanoma it was above 100 µM; in the assay with M14 melanoma, above 100 µM; in the assay with MOLT-4 leukemia, above 100 µM; in the assay on MDA-MB-435, 0.052 µM. Further, the TGI was above 74.7 µM in the assay on SR leukemia, above 67.4 µM with SF-268 CNS, above 43.4 µM in the assay with IGROV1 ovarian and above 100 µM with SK-MEL-28 melanoma.
